The values that follow come from US5530157A, “Anti-inflammatory benzoic acid derivatives” (Scios Nova Inc., priority 1995, dated 1996).

The test system of the first experiment is polymorphonuclear neutrophils. The experiment can be described thus: Adherence of PMN to serum coated wells, TNF-α. The note with it: Homo sapiens, Polymorphonuclear neutrophil, 20 min, TNF-α 3 nM, read-out: IC50 to inhibit adhesion, TNF-α serum. The format is cell-based. The text has this:
(§1) Several in vitro assays were employed to determine the ability of compounds of the invention to function as anti-inflammatory agents. One group of assays measured the ability of the compounds to inhibit adherence of polymorphonuclear neutrophils to serum coated wells (in the presence of either TNF-α or PAF) or to human umbilical vein endothelial cells (in the presence of INF-γ). Another group of assays measured the ability of the compounds to inhibit the release of elastase or superoxide from activated neutrophils. These assays were performed in the following manner.
Isolation of PMN: Blood was drawn into syringes containing heparin (1 U/mL), from human volunteers (free of any medication for at least 48 hrs). 30 mL of blood was layered over a gradient of 10 mL 1.077 g/mL Histpaque (Sigma, St. Louis, Mo.), and centrifuged at room temperature, 400×g for 20 min. All subsequent manipulations were carried out at room temperature, with endotoxin free reagents, and using polypropylene pipettes and tubes, to prevent activation of the PMN. The pinkish PMN layer immediately above the RBC was collected and washed 2× with Hank's buffered salt solution with calcium and magnesium, 0.2% glucose, and 10 mM HEPES, pH 7.2 (HBSS++) by centrifugation at 400×g for 10 min. Pellets were suspended in 8 mL 0.9% NaCl, and RBC lysed by the addition of 24 mL water for 40 sec, followed by the addition of 8 mL of 3.6% NaCl. After centrifugation at 200×g for 8 min, RBC ghosts were aspirated from the top of the PMN pellet, and cells washed with HBSS++. PMN adherence to protein substrates: 96 well tissue culture plates were coated with 10% pooled human serum (North American Biological,;, Miami, Fla.) in phosphate buffered saline (PBS) for 1 hr at 37° C., followed by washing 3× with PBS. Test compounds were prepared in DMSO as 100× stocks. PMN (4×10^6 /mL) were preincubated with test compounds for 10 min at 37° C. in serum-coated wells. Tumor necrosis factor (TNF-α) was added to 3 nM or platelet aggregation facor (PAF) to 1 μM, and adherence was carried out for 20 or 10 min, respectively. Nonadherent cells were aspirated, and wells washed two times with warm PBS with calcium and magnesium, with blotting of the inverted plate following each aspiration. Adherent PMN were quantitated using a BCA protein assay (Pierce, Rockford, Ill.).
As for `O=C(O)c1ccc(/C=C/c2ccccc2-c2ccccc2)cc1` [NPC 18730, 4-[2-(biphenyl)-E-ethenyl]benzoic acid], the IC50 was 2.9 µM.

On to `O=C(O)c1ccc(C=Cc2ccccc2Oc2ccccc2)cc1` [NPC 18801, 2'-phenoxy-4-stilbenecarboxylic acid], for which the IC50 came out at 6.9 µM.

Take `O=C(O)c1ccc(/C=C/c2ccccc2-c2ccc(Cl)c(Cl)c2)cc1` [NPC 18818, 4-{2-[2-(3,4-dichlorophenyl)phenyl]-(E)-ethenyl] benzoic acid]: the IC50 was determined as 1.8 µM.

In the next experiment the test system is neutrophils. The experiment can be described thus: Elastase release from neutrophils, fMLP. The format is cell-based. Particulars: Homo sapiens, Neutrophil; fMLP 200 nM, cytochalasin b; read-out: IC50 to inhibit elastase release, fMLP/ER.
Description: as §1
(§2) Elastase release. Neutrophils (5×10^6 /ml in HBSS) were preincubated for 5 min at 37° C. with cytochalasin b (5 μg/ml). Experiments were performed in microtubes (96 per rack) to which were added the cell suspension, test compound (50 nM-500 μM), and one of several activators (fMLP, 200 nM, C5a, 24 nM; PAF, 20nM). After incubation (30 min, 37° C.) the tubes were centrifuged (1 min, 1500 rpm) and the supernatants assayed for elastase activity according to the following protocol:
(§3) Specifically, 10 μl of purified human neutrophil elastase standard or of sample was added to 70 μl or 0.1M Tris pH 7.5, 0.5% Brij detergent and 10 μl or 5 mM elastase substrate (methoxysuccinyl-alanyl-alanyl-prolyl-valyl paranitroanilide) in a 96 well microliter plate. Plates were indubated for 60 min at 37° C. and absorbance was read at 410 nm on a microplate reader. Elastase activity was quantitated relative to standards.
For the compound `O=C(O)c1ccc(/C=C/c2ccccc2-c2ccccc2)cc1` [NPC 18730, 4-[2-(biphenyl)-E-ethenyl]benzoic acid], the IC50 was determined as 6.25 µM.

Consider `O=C(O)c1ccc(C=Cc2ccccc2Oc2ccccc2)cc1` [NPC 18801, 2'-phenoxy-4-stilbenecarboxylic acid], for which the IC50 was found to be 7.5 µM.

As for `O=C(O)c1ccc(/C=C/c2ccccc2-c2ccc(Cl)c(Cl)c2)cc1` [NPC 18818, 4-{2-[2-(3,4-dichlorophenyl)phenyl]-(E)-ethenyl] benzoic acid], the IC50 came out at 1.2 µM.

The test system of the next experiment is neutrophils. Description: Elastase release from neutrophils, PAF. The note with it: Homo sapiens, Neutrophil; PAF 20 nM, cytochalasin b; read-out: IC50 to inhibit elastase release, PAF/ER. It counts as cell-based.
Description: as §1, §2, §3
On to `O=C(O)c1ccc(/C=C/c2ccccc2-c2ccccc2)cc1` [NPC 18730, 4-[2-(biphenyl)-E-ethenyl]benzoic acid], for which the IC50 came out at 3.23 µM.

As for `O=C(O)c1ccc(C=Cc2ccccc2Oc2ccccc2)cc1` [NPC 18801, 2'-phenoxy-4-stilbenecarboxylic acid], the IC50 stood at 0.6 µM.

For `O=C(O)c1ccc(/C=C/c2ccccc2-c2ccc(Cl)c(Cl)c2)cc1` [NPC 18818, 4-{2-[2-(3,4-dichlorophenyl)phenyl]-(E)-ethenyl] benzoic acid], the IC50 is 0.81 µM.

Another experiment has as its system neutrophil accumulation in the cutaneous Reverse Passive Arthus reaction. Description: Neutrophil accumulation in the cutaneous Reverse Passive Arthus reaction in rats. It counts as in vivo, Male Sprague Dawley rats. Particulars: rat, i.p., 1.4 mg/kg, n = 4. Here is the method:
Two in vivo models of inflammation were used to assess the anti-inflammatory activity of compounds of the invention. One model measures neutrophil accumulation in thioglycollate-induced peritonitis in mice. The other measures neutrophil accumulation in the cutaneous Reverse Passive Arthus reaction in rats. These assays were carried out as follows.
Male Sprague Dawley rats were treated with test compounds by intraperitoneal injection of 1.4 mg/kg in 1% Tween, pH 9.0 vehicle. After 1 hr, animals were lightly anesthetized with 2% isoflurane, v/v, injected by intravenous route with 1 ml of 5 mg/ml human serum albumin, immediately follwed by intracutaneous administration of 75 μl of a solution of 4 mg/ml of goat anti-human serum albumin. Animals were anesthetized 4 hrs after antigen-antibody treatment. Punch biopsies of the dorsal injection sites were performed with one biopsy weighed for wet/dry weight ratio determination. The remaining two skin biopsies were used for measuring myeloperoxidase content and were minced, weighed and homogenized for 30 sec in 20 mM phosphate buffer (pH 7.4). After centrifugation (20 min, 6000×g, 4° C.) the supernatant was decanted and the pellet resuspended in 50 mM phosphate buffer (pH 6.0) containing 0.5% hexadecyltrimethylammonium bromide. After three freeze/thaw cycles, the pellet was centrifuged (15 min, 20000×g, 4° C.) and 100 μl aliquots were added to 2.9 ml of assay buffer (50 mM phosphate buffer, 0.167 mg/ml o-dianiside, 0.05% H2 O2, pH 6.0). Absorbance at 460 nm was measured at 15 min. Results shown in Table IV were calculated as absorbance units/g dry weight.
On to `O=C(O)c1ccc(/C=C/c2ccccc2-c2ccccc2)cc1` [NPC 18730, 4-[2-(biphenyl)-E-ethenyl]benzoic acid], for which the “Reverse Passive Arthus % Inhibition” value was found to be 40%.

In the case of `O=C(O)c1ccc(C=Cc2ccccc2Oc2ccccc2)cc1` [NPC 18801, 2'-phenoxy-4-stilbenecarboxylic acid], the “Reverse Passive Arthus % Inhibition” value is 3%.

As to `O=C(O)c1ccc(/C=C/c2ccccc2-c2ccc(Cl)c(Cl)c2)cc1` [NPC 18818, 4-{2-[2-(3,4-dichlorophenyl)phenyl]-(E)-ethenyl] benzoic acid], the “Reverse Passive Arthus % Inhibition” value came to 8%.
